The text below walks through data of patent US5914314A (priority 1989, dated 1999).

For data set [1] the following is noted: Case XXVIII: carcinoma of the ovary, 40 kg; 120-200 mg LASIX intravenously.
For data set [2] the following is noted: following intravenous administration; cited from earlier work.
Data set [3] in a line: topical application to scalp, hair growth. It is filed as in vivo, human. Particulars: Case XXX: balding patient; topically to scalp. The protocol:
This patient was diagnosed in January, 1990. A gastric resection and colonic replacement of oesophagus (for swallowing) was performed. They had also developed an intraperitoneal tumor. They were given chemotherapy and lost their hair. […] Dr. Falk saw this patient on Jun.
This balding patient applied the product "minoxidil" sold under the trademark "ROGAINE" topically to their scalp.

For another data set, the system named is tumor. Particulars: injected directly into a tumor.
Data set [4] in a line: side effects / toxicity in human patients. It is filed as in vivo. Particulars: 10 to 1000 mg/70 kg person.
Data set [5] has as its system Grafts from ACI strain rats (black) to Lewis Strain rats (white). Kind of data set: standard rat skin graft rejection model. It is filed as in vivo. Particulars: hyaluronic acid added to cyclosporin.

For the compound `NS(=O)(=O)c1cc(C(=O)O)c(NCc2ccco2)cc1Cl` [LASIX, furosemide], the “total volume of urine over 48 hours” value in data set [1] was 2,450 ml. Moreover, in data set [2], the duration of action entry is given as “about 2 hours” and the onset of diuresis was at most 30 min.
Regarding `Nc1cc(N2CCCCC2)nc(N)[n+]1[O-]` [ROGAINE, minoxidil], the hair growth result in data set [3] was “minimal or little hair growth”.
On to `CCO` [ethyl alcohol], for which, in the data set on tumor, the “dispersion in tumor, sonographic (ultrasound) assessment” value is on record as “not dispersed throughout the tumor”.
Regarding hyaluronic acid, the toxicity result in data set [4] is recorded as “no toxicity”. Further, the “cyclosporin induced graft survival” value in data set [5] is recorded as “significantly increased cyclosporin induced graft survival”.
